Experimental data: patent US20200155487A1, “Treatment of obesity and its complications” (CymaBay Therapeutics, Inc., priority 2018, published 2020)

Columns and labels:
[1] = system: dyslipidemic overweight patients; conditions: cited from earlier work; for reduction of alkaline phosphatase: control group 4%
DIO-NASH C57BL/6J mouse = experiment: Diet-induced obese mouse model of NASH (DIO-NASH), 12 weeks dosing; type: in vivo; conditions: SD in parentheses
Source text: The diet-induced obese mouse model of NASH (DIO-NASH) uses the C57BL/6J mouse fed a high fat diet that results in NAFLD/NASH. A protocol is described in Kristiansen et al., “Obese diet-induced mouse models of nonalcoholic steatohepatitis—tracking disease by liver biopsy”, World J. Hepatol., 8(16), 673-684 (2016). Male C57BL/6J mice were fed an atherogenic 40% high fat diet (AMLN diet, D09100301, Research Diet, US—40 kcal % fat (18% trans fat), 40 kcal % carbohydrate (20% fructose), 2% cholesterol) for 43 weeks before the start of the trial, to induce NAFLD/NASH. At week −3, the mice underwent a liver biopsy, which was scored for steatosis and fibrosis; mice with fibrosis stage <1 and steatosis score <2 were deselected prior to randomization. A stratified randomization into treatment groups was performed according to liver Collal quantification. […] At 12 weeks, analyses included body weight, plasma ALT, AST, triglycerides, and total cholesterol; liver triglycerides and total cholesterol; and NAS, fibrosis, Collal, galectin-3, and steatosis and fibrosis scores from a liver biopsy. Results are given in the table below: standard deviations are in parentheses: […]

obese subjects = experiment: Example 2 clinical study, single agent seladelpar in obese subjects, 52 weeks; type: in vivo, human; conditions: 10, 20, and 50 mg/day for 52 weeks
Source text: Subjects are permitted their usual other medications (e.g. antidiabetic medications such as metformin or […]) but not glitazones, PPAR agonists, OCA, or similar medications. […] The primary efficacy outcome is the change in body weight. Other outcome measures related to the complications of obesity include change in baseline in liver fat content at 12 weeks, as measured by magnetic resonance imaging-derived proton density fat fraction (MRI-PDFF), histological improvement in NASH and fibrosis, assessed by comparing liver biopsy samples at baseline and at 52 weeks after the start of dosing; MRI-PDFF at 26 and 52 weeks; and measurements of total cholesterol, HDL-C, LDL-C, VLDL-C, TGs, apoB, and liver transaminases. The subjects also maintain health diaries, which are reviewed at each visit.

[2] = system: Alms1 mutant (foz/foz) mice; conditions: mouse, in vivo; cited from earlier work
NAFLD/NASH = conditions: in vivo; cited from earlier work
women and men = conditions: human, in vivo; cited from earlier work
[3] = system: patients with type 2 diabetes; conditions: in SNAC carrier, 20 and 40 mg/day; cited from earlier work
[4] = compared to placebo, alone and with atorvastatin, 8 weeks

## CC(C)c1c(C(=O)Nc2ccccc2)c(-c2ccccc2)c(-c2ccc(F)cc2)n1CC[C@@H](O)C[C@@H](O)CC(=O)O [ATV, reference compound]
[1]; 8 weeks, atorvastatin 20 mg
  increase of γ-glutamyl transpeptidase: 2%
[1]; 8 weeks
  reduction of alkaline phosphatase: 6%

## CCO[C@H](COc1ccc(C(F)(F)F)cc1)CSc1ccc(OCC(=O)O)c(C)c1 [Seladelpar, (R)-2-(4-((2-ethoxy-3-(4-(trifluoromethyl)phenoxy)propyl)-sulfanyl)-2-methylphenoxy)acetic acid]
DIO-NASH C57BL/6J mouse; after 12 weeks dosing
  NAS post-treatment: 3.9 (0.5)
DIO-NASH C57BL/6J mouse; at 12 weeks
  Liver TC: 10 (3) mg/g liver
  Liver TG: 75 (20) mg/g liver
  Plasma TC: 257 (40) mg/dL
  Plasma TG: 38 (20) mg/dL
DIO-NASH C57BL/6J mouse; baseline biopsy before dosing
  NAS pre-treatment: 6.0 (0.8)
DIO-NASH C57BL/6J mouse; liver biopsy at 12 weeks
  Sirius red stain: 2.4 (1.8) %
DIO-NASH C57BL/6J mouse; plasma, at 12 weeks
  ALT: 107 (65) U/L
  AST: 162 (59) U/L
Obese subjects
  improvement in obesity and complications (body weight, MRI-PDFF, liver biopsy, NAS score): dose-related improvement
[1]; 8 weeks, control group 3%
  reduction of γ-glutamyl transpeptidase: 24-28%
[1]; 8 weeks
  reduction of alkaline phosphatase: 32-43%
[1]; compared to placebo, 50 or 100 mg alone or with atorvastatin 20 mg, 8 weeks, P<0.05
  reduction of apoB100: 20-38%
[1]; [4]
  raise of HDL-C: 1-12%
  reduction of LDL: 18-43%
  reduction of free fatty acids: 16-28%
  reduction of high-sensitivity C-reactive protein: 43-72%
  reduction of non-HDL-C: 18-41%
  reduction of triglycerides: 26-30%
[1]; in vivo
  depletion of small dense LDL particles: 92%
  reduction of the percentage of subjects meeting the criteria for metabolic syndrome: > 2 fold
  safety and tolerability: safe and generally well-tolerated
[2]
  NASH pathology (hepatic steatosis, inflammation, fibrosis): improves NASH pathology

## CCCCCCCCCCC[C@@H](C[C@@H]1OC(=O)[C@H]1CCCCCC)OC(=O)[C@H](CC(C)C)NC=O [orlistat]
NAFLD/NASH
  benefit in NAFLD/NASH compared to weight loss alone: no significant benefit

## CCc1ccc(CCOc2ccc(CC3SC(=O)NC3=O)cc2)nc1 (stereo not shown) [pioglitazone]
Women and men
  associated risks: significantly increased risk of weight gain, edema, congestive heart failure, and osteoporotic fractures

## semaglutide
[3]
  efficacy of once/day oral dosing: efficacious
